Source: patent US10633363B2, “EPAC1 activators as HIV latency reversal agents (LRA)” (The Board of Regents of The University of Texas System, priority 2017, dated 2020)
“Also recorded” adds a separate entry of the source.

Tests used:
[1] = tested on: latent HIV in J-lat cells; experiment: Activation of GFP expression (latent HIV reactivation) in J-lat cells; assay type: cell-based; conditions: for GFP expression in J-lat cells: flow cytometry, 10 M (so in the source); for Ability to stimulate GFP expression in J-lat cells compared with ZL0568 (SAR): 10 μM
Procedure: FIG. 2A. Assessment of compound ZL0568, an exemplary embodiment of the invention, for the ability to stimulate GFP expression in J-lat cells. GFP fluorescence intensity was measured by microplate reader.
FIG. 2C. Dose-dependent activation of GFP expression in J-lat cells by ZL0568 measured by flow cytometry.
Dose-dependent activation of GFP expression by ZL0568 in J-lat cells was confirmed by flow cytometric analysis with an EC50 value of 8 μM (in DMSO) (FIG. 2C-D). […] See e.g., FIG. 8A-E.
Specificity and structure-activity relationship (SAR) for ZL0568 was determined by synthesizing and testing four analogues (ZL0696, ZL0697, ZL0699 and ZL06100; 10 μM).

[2] = tested on: EPAC (EPAC1) in J-lat cells; experiment: 007-AM-stimulated GFP expression in J-lat cells after CRISPR/Cas9 knock out of EPAC; assay type: cell-based
Text: FIG. 3F. Functional involvement of EPAC in 007-AM stimulated HIV reactivation in J-lat cells.

[3] = tested on: latent HIV in NNTC PBMC; experiment: Activation of latent HIV gene expression (3'LTR PCR) in PBMC of ART-suppressed, aviremic HIV-infected subjects (NNTC); assay type: cell-based; conditions: for HIV gene expression, PCR quantification of HIV 3'LTR vs NC: fresh and frozen PBMC of one NNTC subject, 48 hours, ZL0568 10 M (so in the source)
Procedure: FIG. 6A. Relative HIV gene expression in one representative PBMC following different treatments. Fresh and cryopreserved PBMC of the same donor were compared.
FIG. 6C. Relative HIV gene expression in multiple BMCs (n=8) after treatments were summarized.
The ability of compound ZL0568 to activate latent HIV in PBMC of ART-suppressed, aviremic HIV-infected subjects was tested. PBMC samples were obtained from the well-established HIV infection cohort from the National NeuroAIDS Tissue Consortium (NNTC) with (66, 67). First, feasibility of using NNTC's cryopreserved PBMC in the experiments was explored by comparing the results from fresh and frozen PBMC of the same subject. […] Thus, fresh and cryopreserved PBMC from a representative NNTC subject (ID: 8400337177) were stimulated with compound ZL0568 (10 M) as compared to stimulation with mock (NC) or positive controls (JQ1, Prostratin and PMA; concentrations of positive controls were used as previously reported (21, 25)).
(§1) HIV release in the supernatants of PBMC at 72 hours after treatments using the 1G5 luciferase reporter assay (68, 69) was measured and very similar results were found (FIG. 6B). We noted that although the levels of HIV activation in frozen PBMC were generally lower than those in fresh PBMC, the differences among different treatments were consistently detected (FIG. 6A-B), supporting the feasibility of using NNTC's cryopreserved PBMCs in our system.
(§2) Compound ZL0568 was further tested in multiple NNTC's donor PBMCs (n=8) for HIV gene activation (FIG. 6C) as well as viral production (FIG. 6D).

[4] = tested on: latent HIV in human monocytic U1 cells; experiment: Activation of latent HIV in U1 cells, intracellular HIV p24 staining by flow cytometry; assay type: cell-based; conditions: various concentrations, 48 hours
Procedure: FIG. 4. Activation of latent HIV by compound ZL0568 in U1 cells. U1 cells were stimulated with various concentrations of compound ZL0568 as indicated or mock-stimulated (NC) for 48 hours. Reactivation of latent HIV were examined based on intracellular HIV p24 staining (p24%) by flow cytometry.
Whether or not compound ZL0568, an exemplary embodiment of the invention, can activate latent HIV in human monocytic U1 cells was evaluated. In particular, U1 cells were stimulated with various concentrations of ZL0568 or mock DMSO (NC). Reactivation of latent HIV was measured based on intracellular HIV p24 staining by flow cytometry.

[5] = tested on: HIV in RV21 PBMC; experiment: Activation of HIV gene expression in PBMC of ART-naive, viremic HIV-infected individuals (RV21); assay type: cell-based
Procedure: FIG. 5A Activation of HIV gene expression (3′ LTR) in a representative RV21 PBMC on Day 1, 2 and 5 after stimulation. The data are shown as fold change to NC.
A significant limitation for some existing LRAs (e.g. HDACi & BETi) is related to their limited efficacy to activate latent HIV in primary cells (16, 17, 19-21). Whether or not our compound ZL0568 can stimulate HIV gene expression in human PBMC from ART-naïve, viremic HIV-infected individuals was assessed using cells from the RV21, an ART-naïve, HIV infection cohort at the Military HIV Research Program (MHRP). See e.g., Liu F, et al. Sequential Dysfunction and Progressive Depletion of Candida albicans-Specific CD4 T Cell Response in HIV-1 Infection. PLoS Pathog 12(6):e1005663 (2016). A widely-used method to detect HIV transcription in cells from infected individuals involves measurement of RNAs containing HIV gag sequences. […] See e.g., Bullen C K, Laird G M, Durand C M, Siliciano J D, & Siliciano R F, New ex vivo approaches distinguish effective and ineffective single agents for reversing HIV-1 latency in vivo. Nat Med 20(4):425-429 (2014).
Therefore, in addition to Gag, a new PCR assay, established by the Siliciano group, specific for intracellular HIV mRNA using a primer/probe set that detects the 3′-sequence common to all correctly terminated HIV RNAs was employed. […]

[6] = tested on: latent HIV in NNTC PBMC; experiment: HIV release in supernatants of treated PBMC, 1G5 luciferase reporter assay; assay type: cell-based; conditions: multiple NNTC donor PBMCs (n=8), p<0.01
Procedure: FIG. 6B. Relative viral release in one representative PBMC following different treatments. Fresh and cryopreserved PBMC of the same donor were compared.
FIG. 6D. HIV release in supernatants of treated PBMC was measured by 1G5 reporter luciferase assay and compared between ZL0568 and NC.
as §1, §2

[7] = Cellular toxicity on J-lat cells (% viable cells); assay type: cell-based; conditions: stated for J-lat and human PBMC together; cell type not specified; read-out: cytotoxicity CC50
Procedure: (§3) FIG. 8A. Cellular toxicity of ZL0568 on J-lat cells. Toxicity was measured as % viable cells at Day 1, 2 and 3 after stimulation at various concentrations.
(§4) Cellular toxicity profile of ZL0568 and its effects on human T cells was evaluated. […] This possibility was precluded since apoptosis was recently shown to be associated with HIV reactivation (68).

[8] = tested on: J-lat cells; experiment: Cellular toxicity on J-lat cells (% viable cells); assay type: cell-based; conditions: J-lat cells; 40 μM
Procedure: as §3, §4

[9] = tested on: human PBMC; experiment: Cellular toxicity on human PBMC (% viable cells); assay type: cell-based; conditions: 40 μM
Procedure: FIG. 8B. Cellular toxicity of ZL0568 on human PBMC. Toxicity was measured as % viable cells at Day 1, 2 and 3 after stimulation at various concentrations.
as §4

[10] = tested on: T cells; experiment: Caspase-3 and Caspase-1 expression in T cells; assay type: cell-based, human; conditions: 24 hours, vs NC
Procedure: FIG. 8C. Caspase-3 and Caspase-1 expression in T cells with ZL0568 stimulation as compared to NC (24 hours).
as §4

[11] = tested on: T cells; experiment: T-cell activation marker expression (CD25, CD38, CD69, HLA-DR) by flow cytometry; assay type: cell-based, human; conditions: 10 μM
Procedure: FIG. 8D. T-cell activation by ZL0568. Activation marker expression (CD25, CD38, CD69, HLA-DR) on T-cells was measured flow cytometry and compared between ZL0568 (10 uM) and NC.
as §4

[12] = tested on: T cells; experiment: Expression of cytokines in T cells by intracellular cytokine staining; assay type: cell-based, human; conditions: 10 uM, 24 hours
Procedure: FIG. 8E. Expression of cytokines (% IFN-r, IL-2, MIP-1b or IL-17) in T cells between ZL0568 treatment (10 uM) and NC (24 hours), measured by intracellular cytokine staining.
as §4

SMILES	GFP expression / HIV reactivation in J-lat cells (in words) [1]	GFP expression in J-lat cells [1]	HIV gene expression, PCR quantification of HIV 3'LTR vs NC [3]	Ability to stimulate GFP expression in J-lat cells compared with ZL0568 (SAR) [1]	also measured
CO[C@@H]1[C@@H]2OP(=O)(OCOC(C)=O)OC[C@H]2O[C@H]1n1c(Sc2ccc(Cl)cc2)nc2c(N)ncnc21 (stereo partly shown) [007-AM, reference compound]	significant HIV reactivation	12.8%	–	–	007-AM-stimulated GFP expression after ablation of EPAC [2]: marked decrease
CC(C)(C)c1cc(C(=O)/C(C#N)=N/Nc2cccc(Cl)c2)no1 [ESI-09, reference compound]	no HIV activation effect; also recorded: no GFP-activating effect	–	–	–	–
Cc1sc2c(c1C)C(c1ccc(Cl)cc1)=N[C@@H](CC(=O)OC(C)(C)C)c1nnc(C)n1-2 [JQ1, reference compound]	–	8.97%	failed to do so	–	–
CCCCCCCCCCCCCC(=O)O[C@@H]1[C@@H](C)[C@@]2(O)[C@@H](C=C(CO)C[C@]3(O)C(=O)C(C)=C[C@@H]23)[C@@H]2C(C)(C)[C@]12OC(C)=O [PMA]	–	–	markedly activated HIV gene expression	–	–
CC(=O)O[C@@]12C[C@@H](C)[C@@]3(O)[C@@H](C=C(CO)C[C@]4(O)C(=O)C(C)=C[C@@H]34)[C@@H]1C2(C)C [Prostratin]	–	–	markedly activated HIV gene expression	–	–
Cn1cc(C(=O)/C(C#N)=N/Nc2ccc(Cl)c(C(F)(F)F)c2)c2ccccc21 [ZL0568, (E)-N-(4-chloro-3-(trifluoromethyl)phenyl)-2-(1-methyl-1H-indol-3-yl)-2-oxoacetohydrazonoyl Cyanide]	significant GFP expression	21.7%	significant HIV gene expression	–	EC50 ([1]; Human immunodeficiency virus 1, flow cytometric analysis, in DMSO, read-out: EC50, dose-dependent activation of GFP expression in J-lat cells): 8 µM; HIV reactivation in U1 cells based on p24 expression [4]: could also stimulate HIV reactivation in U1 cells in a dose-dependent manner; HIV gene expression (3'LTR and Gag together) vs NC ([5]; ART-naive RV21 PBMCs, Day 2, p<0.005): could significantly activate HIV gene expression; HIV 3'-LTR gene expression, time course ([5]; representative RV21 PBMC, 10 M (so in the source), Day 1, 2 and 5): induced HIV 3′-TLR expression on Day 2 after stimulation, which became less significant on Day 5; HIV gene activation vs NC ([3]; multiple NNTC donor PBMCs (n=8), p<0.01): enhanced HIV activation; Viral production vs NC [6]: enhanced HIV activation; CC50 [7]: 75 µM; Cellular toxicity, % viable cells [8]: limited cellular toxicity; Cellular toxicity, % viable cells [9]: limited cellular toxicity; Induction of cell death signals (caspase-3/caspase-1) [10]: no preferential induction of cell death signals; CD69 and HLA-DR expression [11]: no significant increase; T-cell activation, expression of CD25 and CD38 ([11]; p<0.001): modest level of T-cell activation; Expression of inflammatory cytokines in T cells (IFN-γ, IL-2, MIP-1b, IL-17) [12]: did not induce expression of inflammatory cytokines
Cn1cc(C(=O)/C(C#N)=N/Nc2ccccc2Cl)c2ccccc21 [ZL0696, (E)-N-(2-Chlorophenyl)-2-(1-methyl-1H-indol-3-yl)-2-oxoacetohydrazonoyl Cyanide]	–	–	–	substantially abrogated the ability to stimulate GFP expression	–
Cn1cc(C(=O)/C(C#N)=N/Nc2cccc(Cl)c2)c2ccccc21 [ZL0697, (E)-N-(3-Chlorophenyl)-2-(1-methyl-1H-indol-3-yl)-2-oxoacetohydrazonoyl Cyanide]	–	–	–	substantially abrogated the ability to stimulate GFP expression	–
Cn1cc(C(=O)/C(C#N)=N/Nc2cc(Cl)cc(Cl)c2)c2ccccc21 [ZL0699, (E)-N-(3,5-Dichlorophenyl)-2-(1-methyl-1H-indol-3-yl)-2-oxoacetohydrazonoyl Cyanide]	–	–	–	substantially abrogated the ability to stimulate GFP expression	–
Cn1cc(C(=O)/C(C#N)=N/Nc2ccc3c(c2)CCC(=O)N3)c2ccccc21 [ZL06100, (E)-2-(1-Methyl-1H-indol-3-yl)-2-oxo-N-(2-oxo-1,2,3,4-tetrahydroquinolin-6-yl)acetohydrazonoyl Cyanide]	–	–	–	still maintained some potency	–
